Assay results as given in US7820665B2, “Imidazopyridazine inhibitors of PI3 kinase for cancer treatment” (Amgen Inc., priority 2007, dated 2010).
pIC50: −log10 of the molar value. Read-outs that look alike come from different tables or passages of the source.

Columns and labels:
PI3Kα = target: T1, PI3Kα (Homo sapiens, UniProt P42336); assay: In vitro PI3 kinase enzyme assay (PI3K ATPLoss); format: biochemical; conditions: recombinant p110α/p85, residual ATP by bioluminescence
T1 construct: Full length p110 subunits of PI3K α, β and δ, N-terminally labeled with polyHis tag; polyHis (N); made in house; host or cells: Sf9 insect cells (baculovirus)
T1 sequence (P42336 whole entry, species assumed): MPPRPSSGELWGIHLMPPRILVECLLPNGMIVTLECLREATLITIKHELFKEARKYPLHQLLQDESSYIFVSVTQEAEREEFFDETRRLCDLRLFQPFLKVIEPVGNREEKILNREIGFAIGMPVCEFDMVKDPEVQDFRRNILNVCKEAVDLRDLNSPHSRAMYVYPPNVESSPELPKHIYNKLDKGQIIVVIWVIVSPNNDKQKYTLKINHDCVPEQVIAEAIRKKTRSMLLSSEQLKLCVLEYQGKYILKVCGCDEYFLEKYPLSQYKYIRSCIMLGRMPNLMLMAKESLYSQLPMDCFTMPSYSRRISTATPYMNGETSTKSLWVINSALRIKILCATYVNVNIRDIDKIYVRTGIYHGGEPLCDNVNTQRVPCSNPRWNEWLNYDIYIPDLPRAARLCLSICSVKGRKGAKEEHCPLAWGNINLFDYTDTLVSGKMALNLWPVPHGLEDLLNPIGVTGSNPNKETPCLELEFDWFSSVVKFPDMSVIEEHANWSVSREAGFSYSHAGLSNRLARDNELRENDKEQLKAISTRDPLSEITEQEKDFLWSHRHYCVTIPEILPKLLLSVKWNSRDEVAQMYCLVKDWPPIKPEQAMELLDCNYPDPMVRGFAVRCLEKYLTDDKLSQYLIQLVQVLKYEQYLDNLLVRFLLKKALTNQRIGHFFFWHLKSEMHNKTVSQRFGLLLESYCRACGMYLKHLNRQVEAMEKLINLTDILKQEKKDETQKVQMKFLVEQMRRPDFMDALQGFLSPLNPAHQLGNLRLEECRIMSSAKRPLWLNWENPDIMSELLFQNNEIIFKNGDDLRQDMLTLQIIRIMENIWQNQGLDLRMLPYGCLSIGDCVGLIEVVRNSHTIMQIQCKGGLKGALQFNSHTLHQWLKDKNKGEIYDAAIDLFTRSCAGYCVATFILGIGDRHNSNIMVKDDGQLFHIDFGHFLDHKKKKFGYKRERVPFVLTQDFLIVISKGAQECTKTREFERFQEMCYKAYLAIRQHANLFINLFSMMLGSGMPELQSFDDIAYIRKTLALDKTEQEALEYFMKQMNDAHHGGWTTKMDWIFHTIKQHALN
T1 sequence (P27986 whole entry partner, species assumed): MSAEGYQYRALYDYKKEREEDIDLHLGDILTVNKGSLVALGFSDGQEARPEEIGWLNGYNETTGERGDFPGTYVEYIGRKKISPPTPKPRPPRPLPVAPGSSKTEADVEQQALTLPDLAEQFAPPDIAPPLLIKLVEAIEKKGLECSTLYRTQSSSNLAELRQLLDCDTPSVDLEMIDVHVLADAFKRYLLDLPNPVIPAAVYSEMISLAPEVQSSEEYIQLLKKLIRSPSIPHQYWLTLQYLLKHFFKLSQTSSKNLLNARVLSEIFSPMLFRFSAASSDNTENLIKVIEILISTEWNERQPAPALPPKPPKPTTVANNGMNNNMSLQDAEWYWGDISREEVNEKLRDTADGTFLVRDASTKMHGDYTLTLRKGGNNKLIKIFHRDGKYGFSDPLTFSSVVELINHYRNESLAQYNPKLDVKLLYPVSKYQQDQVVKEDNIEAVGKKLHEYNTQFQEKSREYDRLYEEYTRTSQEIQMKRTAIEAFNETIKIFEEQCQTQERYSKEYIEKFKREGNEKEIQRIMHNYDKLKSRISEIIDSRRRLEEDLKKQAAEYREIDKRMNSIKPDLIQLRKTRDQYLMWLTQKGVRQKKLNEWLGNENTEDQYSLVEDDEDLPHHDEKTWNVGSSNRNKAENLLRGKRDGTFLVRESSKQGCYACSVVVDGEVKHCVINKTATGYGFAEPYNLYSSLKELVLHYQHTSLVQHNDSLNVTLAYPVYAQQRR
Experimental: Full length p110 subunits of PI3K α, β and δ, N-terminally labeled with polyHis tag, can be co-expressed with p85 with Baculo virus expression vectors in sf9 insect cells. P110/p85 heterodimers can be purified by sequential Ni-NTA, Q-HP, Superdex-100 chromatography. Purified α, β and δ isozymes can be stored at −20° C. in 20 mM Tris, pH 8, 0.2M NaCl, 50% glycerol, 5 mM DTT, 2 mM Na cholate. Truncated PI3Kγ, residues 114-1102, N-terminally labeled with polyHis tag, can be expressed with Baculo virus in Hi5 insect cells. The γ isozyme can be purified by sequential Ni-NTA, Superdex-200, Q-HP chromatography. The γ isozyme can be stored frozen at −80° C. in NaH2PO4, pH 8, 0.2M NaCl, 1% ethylene glycol, 2 mM β-mercaptoethanol.
PI3K enzyme assays (alpha, beta, delta and gamma) can be performed in 25 μL with the above final concentrations of components in white polyproplyene plates. Phosphatidyl inositol phosphoacceptor, PtdIns(4,5)P2 (e.g. P4508) can be obtained from Echelon Biosciences, Salt Lake City, Utah. The ATPase activity of the alpha and gamma isozymes may not be greatly stimulated by PtdIns(4,5)P2 under these conditions, it can be omitted from the assay of these isozymes. Test compounds can be dissolved in DMSO and diluted with three-fold serial dilutions. The compound in DMSO (1 μL) may be added per test well, and the inhibition relative to reactions containing no compound, with and without enzyme can be determined. After assay incubation at RT, the reaction can be stopped and residual ATP can be determined by addition of an equal volume of a commercial ATP bioluminescence kit (Perkin Elmer EasyLite, Perkin Elmer, Waltham, Mass.) according to the manufacturer's instructions, and detected using an Analyst GT luminometer.

[1] = tested on: phosphorylation of Akt at Serine 473 in U87 MG cells; assay: pAkt AlphaScreen (U87 Cell); format: cell-based; conditions: 2 h compound, pAkt Ser473 AlphaScreen
Experimental: The pAkt AlphaScreen® assay (PerkinElmer, Waltham, Mass.) determines whether there is phosphorylation of Akt at Serine 473 by recruitment of a phosphospecific antibody. This assay was performed using U87 MG cells. The U87 growth media consists of MEM (Gibco, Carlsbad, Calif.) supplemented with 10% FBS (Gibco), 1× Non-Essential Amino Acids (Gibco) and 1× Penicillin/Streptomycin/Glutamine (Gibco). The cells were maintained weekly using 0.05% Trypsin (Gibco) and replated in 150 mm TC-Treated Culture Dishes (Corning, Corning, N.Y.).
The first day of the assay, the adherent cells were trypsinized, media was added to the loose cells and cells were mixed to a homogenous mixture. 0.5 ml of the homogenous mixture was counted on the Beckman Coulter® Vi-CELL™ XR (Fullerton, Calif.). 50 frames of cells were counted and the number of viable cells was determined. The cells were then diluted to 0.25 million cells per ml, and centrifuged at 200 rcf for 5 minutes. The media was removed and the cells were reconstituted in fresh media for plating. The cells were plated at 20 μl per well on the PerkinElmer® Flexprop PLUS in Low Volume 384 Well White Tissue Culture Plates (Corning) with a final cell density of 5K cells per well. The plates were incubated overnight at 37° Celsius, 5% CO2.
On the second day, the compound plates were prepared, the cells were treated with compound and the pAkt reaction mix was added to the cell lysate. 384 well compound plates were prepared containing 1 μl of compound per well starting at 5 mM and diluted 1:2 across the row, resulting in a 22 well serial dilution. 39 μl of growth media was added to the compound plate in rows 1-22 using the PerkinElmer® FlexDrop PLUS resulting in a DMSO concentration of 2.5%. The cell plates and diluted compound plates were put onto the VELOCITY11™ VPREP™ 384 ST where the compound plate was mixed and 5 μl of serially diluted compound or controls was added to the cell plate. The final concentration of the compounds was 25 μM serially diluted to 11.9 pM in 0.5% DMSO. The cell plates were then incubated with compound for two hours at 37° Celsius, 5% CO2. After two hours, the media in the cell plates was aspirated using the BioTek® ELx405HT plate washer (Winooski, Vt.) removing the majority of media and compound without disturbing the adherent U87 cells. The following assay reagents are components of the SureFire® Akt (Ser 473) Phosphorylation 50K Point Kit (TGR BioSciences, Adelaide, Australia) and an IgG Detection Kit (PerkinElmer, Waltham, Mass.). 5 μl of 1× Lysis Buffer was added to each well using the PerkinElmer® FlexDrop PLUS. The plates were then incubated at room temperature on a shaker for ten minutes. The AlphaScreen® reaction was prepared under low light conditions (subdued or green light) including p-Akt (Ser 473) Reaction Buffer, Dilution Buffer, Activation Buffer, Acceptor Beads and Donor Beads at a ratio of 40:20:10:1:1 respectively. The AlphaScreen® reaction was added to the cell lysate at 6 μl per well using the PerkinElmer® FlexDrop PLUS. The plates were placed in a humid environment to reduce edge effects and incubated overnight at room temperature with restricted air flow in the dark.
On the final day of the experiment, the plates were read on the PerkinElmer® EnVision™ 2103 Multilable Reader using the standard AlphaScreen® readout. The POC is calculated and the data is analyzed to report the IC50 IP for pAkt at Serine 473.

[2] = tested on: Akt phosphorylation at Ser473 in HCT116 cells; assay: Cell-based phospho-AKT Ser473 assay (HCT116 Cell), MSD sandwich immunoassay;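 note: IGF-1 added at 100 ng/mL for 15 min after compound treatment, electrochemiluminescent readout of phospho-Akt, DMSO-only wells define maximum signal, IC50 reflects inhibition of phosphorylation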
Excerpt: This assay determines the ability of a compound to inhibit the phosphorylation of Serine 472 in Akt using a MSD based sandwich immunoassay (Meso Scale Detection, Meso Scale Discovery (MSD), Gaithersburg, Md.). HCT116 human colon carcinoma cell lines can be grown in McCoy's 5A growth medium (GIBCO, Carlsbad, Calif.) containing 10% FBS (GIBCO, Carlsbad, Calif.) and X1 Penicillin-streptomycin-glutamine (GIBCO, Carlsbad, Calif.). Prior to the assay, cells can be detached from the culture flask with trypsin, and re-suspended in complete media to give a final concentration of 1.6×10^5 cells per mL. Aliquots (100 μl) of the HCT116 cell suspension can be seeded into each well of a 96 well tissue culture plate to give a final density of 16,000 cells per well. Cells can then be incubated overnight at 37° C.
The following day the cells can be treated with serially diluted test compounds and incubated for 2 hours at 37° C. The culture media on the HCT 116 cells can be replaced with 189 μL McCoys media, supplemented with 0.1% BSA (ICN Biomedicals, Inc., Costa Mesa, Calif.). […] Aliquots (1 μL) of serially-diluted compounds can be transferred to 96 well tissue culture plates containing the HCT 116 cells. […] As a maximum response control, wells can contain 0.5% DMSO in place of compound. The plates can be mixed at 700 rpm for 2 min to ensure even distribution of the test compound and incubated for 2 hours at 37° C. Cells can then be stimulated with insulin-like growth factor 1 (Sigma, St Louis, Mo.) at final concentration of 100 ng/mL for 15 minutes at 37° C. The media can then be removed and the cells treated with 80 μL cell-lysis buffer (MSD) containing a cocktail of protease and phosphatase inhibitors for one hour at 4° C.
25 μL Cell lysate can then be transferred to pre-blocked MSD assay plates pre-coated with a capture antibody specific for Akt, and the plates can be incubated for 2 hours at room temperature. The cell lysates can then be removed and plates can then be washed four times with 200 μl per well of Tris wash buffer (500 mM Tris, PH 7.5, 1.5 M NaCl, 0.2% Tween-20). Subsequently cells can be incubated for 1 hour at room temperature with a 25 μL solution containing the detection antibody, anti-phospho Akt (Ser 473) labeled with an electrochemiluminescent compound (Meso Scale Discovery SULPHO-TAG™ label, MSD, Gaithersburg, Md.). The detection antibody can be removed and plates can then be washed four times with 200 μL per well of Tris wash buffer. An aliquot of 150 μL of diluted MSD read buffer can then be applied to each well, and the electrochemiluminescent signal can be measured using a MSD SECTOR™ plate reader (Meso Scale Discovery, Gaithersburg, Md.). This instrument measures the intensity of emitted light to determine a quantitative measure of phosphorylated Akt in each well. The dose-response data obtained with each compound can be analyzed and the IC50 inhibition of Akt phosphorylation at Ser473 can be calculated.

[3] = read-out: HCT116 Cell IC50, HCT116 cells, 2 h compound, IGF-1 stimulation, pAkt Ser473
[4] = Homo sapiens, HCT-116, 2 h, read-out: HCT116 Cell IC50, HCT116 cells, 2 h compound, IGF-1 stimulation, pAkt Ser473

SMILES	pIC50 (PI3Kα)	pIC50 [1]	pIC50 [2, 3]	pIC50 ([1]; Homo sapiens, U-87 MG, 2 h)	pIC50 [2, 4]
CNC(C)c1ccc(S(=O)(=O)Nc2cc(-c3ccc4nc(NC(C)=O)cn4n3)cnc2Cl)cc1 (single isomer, unassigned) [Example 39, N-(6-(6-chloro-5-(4-(1-(methylamino)ethyl)phenylsulfonamido)pyridin-3-yl)imidazo[1,2-b]pyridazin-2-yl)acetamide]	8.10	7.55	6.98	–	–
CC(=O)Nc1cn2nc(-c3cnc(Cl)c(NS(=O)(=O)c4ccc(F)cc4)c3)ccc2n1 [Example 12, N-(6-(6-chloro-5-(4-fluorophenylsulfonamido)pyridin-3-yl)imidazo[1,2-b]pyridazin-2-yl)acetamide]	8.15	–	–	7.85	7.51
CC(=O)Nc1cn2nc(-c3cnc(Cl)c(NS(C)(=O)=O)c3)ccc2n1 [Example 19, N-(6-(6-Chloro-5-(methylsulfonamido)pyridin-3-yl)imidazo[1,2-b]pyridazin-2-yl)acetamide]	8.24	–	–	6.88	6.66
CC(=O)Nc1cn2cc(-c3cnc(Cl)c(NS(=O)(=O)c4ccc(F)cc4)c3)ccc2n1 [Example 28, N-(6-(6-Chloro-5-(4-fluorophenylsulfonamido)pyridin-3-yl)imidazo[1,2-a]pyridin-2-yl)acetamide]	8.05	–	7.34	6.93	–
CC(=O)Nc1cn2nc(-c3cnc(Cl)c(NS(=O)(=O)c4cccc(OC(F)F)c4)c3)ccc2n1 [Example 33, N-(6-(6-Chloro-5-(3-(difluoromethoxy)phenylsulfonamido)pyridin-3-yl)imidazo[1,2-b]pyridazin-2-yl)acetamide]	8.15	–	–	7.82	7.62
CC(=O)Nc1cn2nc(-c3cnc(Cl)c(NS(=O)(=O)c4c(C)cccc4Cl)c3)ccc2n1 [Example 34, N-(6-(6-Chloro-5-(2-chloro-6-methylphenylsulfonamido)pyridin-3-yl)imidazo[1,2-b]pyridazin-2-yl)acetamide]	8.15	–	–	8.15	8.52
CC(=O)Nc1cn2nc(-c3cnc(Cl)c(NS(=O)(=O)c4ccc(C(C)(C)O)cc4)c3)ccc2n1 [Example 35, N-(6-(6-Chloro-5-(4-(2-hydroxypropan-2-yl)phenylsulfonamido)pyridin-3-yl)imidazo[1,2-b]pyridazin-2-yl)acetamide]	8.22	–	–	7.47	7.31
Nc1cn2nc(-c3cnc(Cl)c(NS(=O)(=O)c4ccc(F)cc4)c3)ccc2n1 [Example 36, N-(5-(2-Aminoimidazo[1,2-b]pyridazin-6-yl)-2-chloropyridin-3-yl)-4-fluorobenzenesulfonamide]	7.08	–	5.61	6.38	–
CC(=O)Nc1cn2nc(-c3cnc(Cl)c(NS(=O)(=O)c4ccc(F)cc4Cl)c3)ccc2n1 [Example 40, N-(6-(6-Chloro-5-(2-chloro-4-fluorophenylsulfonamido)pyridin-3-yl)imidazo[1,2-b]pyridazin-2-yl)acetamide]	8.30	–	–	7.68	7.26
CC(=O)Nc1cn2nc(-c3cnc(Cl)c(NS(=O)(=O)N4CCOCC4)c3)ccc2n1 [Example 41, N-(6-(6-Chloro-5-(morpholine-4-sulfonamido)pyridin-3-yl)imidazo[1,2-b]pyridazin-2-yl)acetamide]	8.22	–	–	7.33	7.12
